Experimental data reported in patent US9801888B2, “Pyrimidine compounds as mTOR and PI3K inhibitors” (DEVELOPMENT CENTER FOR BIOTECHNOLOGY, priority 2009, dated 2017).

Each compound was assayed on PI3K (p110β/p85α) (assay: PI3K HTRF enzyme assay, p110β/p85α). Conditions: compound at 500 nM; 100 μM ATP.
Type: biochemical
Procedure: Recombinant PI3K (p110α/p85α) and PI3K (p110β/p85α) were from Millipore. […] Briefly, the compounds of interest dissolved in 100% DMSO were dispensed in all wells, following which the mixture of PIP2 and enzyme was added. PI3K (p110α/p85α) and PI3K (p110β/p85α) enzyme reactions were initiated in the presence of 10 μM and 100 μM ATP, respectively, and incubated for 30 min at room temperature. STOP solution prepared 2 hours prior to use was added to stop reactions, and mixed well. Detection solution prepared 2 hours prior to use was added, and incubated at room temperature for 17 hours in the dark. […] HTRF ration was calculated as follows: […]

How did the “% inhibition @ 500 nM p110β” value turn out when CSc1c(OCCN(C)C)nc(-c2cccc(O)c2)nc1N1CCOCC1 [MTR-0043, 3-[4-(2-Dimethylamino-ethoxy)-5-methylsulfanyl-6-morpholin-4-yl-pyrimidin-2-yl]-phenol] was run?
The value was 44.80%.

For COc1cnc(-c2ccc(NC(=O)Nc3cccc(F)c3)cc2)nc1N1CCOCC1 [MTR-0164, 1-(3-Fluoro-phenyl)-3-[4-(5-methoxy-4-morpholin-4-yl-pyrimidin-2-yl)-phenyl]-urea], which “% inhibition @ 500 nM p110β” value is on record?
The value was 42.10%.

How did the “% inhibition @ 500 nM p110β” value turn out when CCOc1cnc(-c2ccc(NC(=O)Nc3ccc(N4CCOCC4=O)cc3)cc2)nc1-c1ccncc1 [MTR-0398, 1-[4-(5-Ethoxy-4-pyridin-4-yl-pyrimidin-2-yl)-phenyl]-3-[4-(3-oxo-morpholin-4-yl)-phenyl]-urea] was run?
The value was 21.80%.

How did the “% inhibition @ 500 nM p110β” value turn out when CSc1c(Cl)nc(-c2ccc(NC(=O)Nc3ccc(F)cc3)cc2)nc1N1CCOCC1 [MTR-0135, 1-[4-(4-Chloro-5-methylsulfanyl-6-morpholin-4-yl-pyrimidin-2-yl)-phenyl]-3-(4-fluoro-phenyl)-urea] was run?
Its value is 14.20%.

Which “% inhibition @ 500 nM p110β” value does the source give for CSc1c(Cl)nc(-c2ccc(N)nc2)nc1N1CCOCC1 [MTR-0133, 5-(4-Chloro-5-methylsulfanyl-6-morpholin-4-yl-pyrimidin-2-yl)-pyridin-2-ylamine] here?
Its value is 4.50%.

Which “% inhibition @ 500 nM p110β” value does the source give for CCOC(=O)c1nc(-c2ccc(NC(=O)Nc3cccc(F)c3)cc2)nc(N2CCOCC2)c1OCC [MTR-0147, 5-Ethoxy-2-{4-[3-(3-fluoro-phenyl)-ureido]-phenyl}-6-morpholin-4-yl-pyrimidine-4-carboxylic acid ethyl ester] here?
Its value is 1.20%.

With CCOc1c(CN2CCN(S(C)(=O)=O)CC2)nc(-c2ccc(NC(=O)Nc3ccccc3)cc2)nc1N1CCOCC1 [MTR-0169, 1-{4-[5-Ethoxy-4-(4-methanesulfonyl-piperazin-1-ylmethyl)-6-morpholin-4-yl-pyrimidin-2-yl]-phenyl}-3-phenyl-urea] as the compound, how does the “% inhibition @ 500 nM p110β” value read?
The value was 3.20%.

Which “% inhibition @ 500 nM p110β” value does the source give for CSc1cnc(-c2ccc(NC(=O)Nc3ccc(F)cc3)cc2)nc1N1CCOCC1 [MTR-0178, 1-(4-Fluoro-phenyl)-3-[4-(5-methylsulfanyl-4-morpholin-4-yl-pyrimidin-2-yl)-phenyl]-urea] here?
Its value is 8.20%.

What follows are compounds tested against recombinant mTOR (Homo sapiens (Human), UniProt P42345) (assay: mTOR kinase assay (33P incorporation into 4EBP1)). Conditions: compound at 10 μM; 10 μM ATP; versus DMSO control.
Type: biochemical
Procedure: The activity of the compound against mTOR was examined by measuring the incorporation of ^33P from [γ-^33P]-ATP into 4EBP1. His-tagged, recombinant human 4EBP1 was expressed in E. coli, purified by nickel-nitrilotriacetic acid (Ni-NTA) resins, and stored at −80° C. Phosphorylation of 4EBP1 by mTOR was assayed in the presence or absence of the compound and performed in a final volume of 25 μl reaction buffer containing 300 ng 4EBP1, 50 ng recombinant mTOR (Invitrogen), 50 mM HEPES (pH 7.5), 1 mM EGTA, 0.01% Polysorbate 20, 10 mM MnCl2, 2.5 mM DTT, 10 μM ATP, and 0.5 μCi [γ-33P]-ATP (PerkinElmer) for 30 min at 30° C. The reactions were terminated by adding 3% phosphoric acid. The ^33P labeled 4EBP1 was transferred onto UniFilter-96 GF/B plate (PerkinElmer) and quantified by Top Count Microplate Scintillation Counter (PerkinElmer). For primary screening of kinase activity inhibition, each test compound was evaluated at […] in duplicate. […] The IC50 values of the compounds were determined after carrying out assays at eight serially diluted concentrations of each compound in duplicate. The results were analyzed using […] software (GraphPad Prism 5; GraphPad Software Inc.).
IC50 value is defined as the concentration of the test compound which achieves a half-maximal inhibition of the kinase activity.

Sequence of recombinant mTOR (P42345 1360-2549): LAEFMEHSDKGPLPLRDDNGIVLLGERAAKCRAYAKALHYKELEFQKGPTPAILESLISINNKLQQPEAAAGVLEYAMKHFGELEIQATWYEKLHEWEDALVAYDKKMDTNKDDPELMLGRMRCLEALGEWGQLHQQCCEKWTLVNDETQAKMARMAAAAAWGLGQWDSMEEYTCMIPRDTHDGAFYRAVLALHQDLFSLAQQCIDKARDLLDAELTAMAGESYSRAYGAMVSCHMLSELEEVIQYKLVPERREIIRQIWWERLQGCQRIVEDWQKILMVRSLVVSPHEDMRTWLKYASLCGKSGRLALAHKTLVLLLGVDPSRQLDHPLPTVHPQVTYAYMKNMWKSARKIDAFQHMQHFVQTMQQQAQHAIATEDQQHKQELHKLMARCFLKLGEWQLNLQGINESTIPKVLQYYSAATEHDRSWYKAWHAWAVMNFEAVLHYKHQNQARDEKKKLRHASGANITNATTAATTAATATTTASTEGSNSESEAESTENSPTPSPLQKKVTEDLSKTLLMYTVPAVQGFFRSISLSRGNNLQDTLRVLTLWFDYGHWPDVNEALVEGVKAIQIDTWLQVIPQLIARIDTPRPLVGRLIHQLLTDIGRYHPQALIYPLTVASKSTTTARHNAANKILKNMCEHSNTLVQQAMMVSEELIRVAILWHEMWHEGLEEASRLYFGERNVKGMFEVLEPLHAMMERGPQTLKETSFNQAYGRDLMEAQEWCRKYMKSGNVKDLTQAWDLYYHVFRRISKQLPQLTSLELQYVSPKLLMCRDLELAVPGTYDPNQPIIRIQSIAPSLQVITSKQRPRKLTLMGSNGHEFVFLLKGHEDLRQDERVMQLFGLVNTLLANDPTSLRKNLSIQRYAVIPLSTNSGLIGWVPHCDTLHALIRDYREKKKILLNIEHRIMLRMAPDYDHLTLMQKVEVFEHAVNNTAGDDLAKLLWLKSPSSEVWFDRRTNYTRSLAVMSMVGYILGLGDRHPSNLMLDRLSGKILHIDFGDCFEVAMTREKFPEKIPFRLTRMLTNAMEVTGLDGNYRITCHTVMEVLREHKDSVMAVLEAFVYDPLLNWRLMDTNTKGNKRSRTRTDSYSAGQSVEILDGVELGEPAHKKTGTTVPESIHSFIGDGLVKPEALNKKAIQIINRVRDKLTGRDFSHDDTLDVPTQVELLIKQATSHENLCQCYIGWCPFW

How did the “% Inhibition @ 10 μM” value turn out when COc1c(-c2ccc(N)cc2)nc(-c2ccc(N)cc2)nc1N1CCOCC1 [MTR-0483] was run?
The value was 88%.
